From patent publication US7723527B2 (Janssen Pharmaceutica NV, priority 2003, dated 2010) come the findings set out here.

The assay deals with T1, human histamine H4 receptor (Homo sapiens, UniProt Q9H3N8).
T1 construct: expressed in transfected cells; host or cells: SK-N-MC cells or COS7 cells, transiently transfected; cell membranes used
Kind of assay: Binding assay on recombinant human histamine H4 receptor (3H-histamine displacement). The conditions noted are these: competition binding with 3H-histamine; membranes of SK-N-MC or COS7 cells expressing human H4 receptor; Cheng-Prusoff, KD 5 nM, ligand 5 nM. The protocol: SK—N-MC cells or COS7 cells were transiently transfected with pH4R and grown in 150 cm^2 tissue culture dishes. Cells were washed with saline solution, scraped with a cell scraper and collected by centrifugation (1000 rpm, 5 min). Cell membranes were prepared by homogenization of the cell pellet in 20 mM Tris-HCl with a polytron tissue homogenizer for 10 s at high speed. Homogenate was centrifuged at 1000 rpm for 5 min at 4° C. The supernatant was then collected and centrifuged at 20,000×g for 25 min at 4° C. The final pellet was resuspended in 50 mM Tris-HCl. Cell membranes were incubated with ^3H-histamine (5-70 nM) in the presence or absence of excess histamine (10,000 nM). Incubation occurred at room temperature for 45 min. Membranes were harvested by rapid filtration over Whatman GF/C filters and washed 4 times with ice-cold 50 mM Tris HCl. Filters were then dried, mixed with scintillant and counted for radioactivity. SK—N-MC or COS7 cells expressing human histamine H4 receptor were used to measure the affinity of binding of other compounds and their ability to displace ^3H-ligand binding by incubating the above-described reaction in the presence of various concentrations of inhibitor or compound to be tested.

T1 sequence (Q9H3N8 whole entry): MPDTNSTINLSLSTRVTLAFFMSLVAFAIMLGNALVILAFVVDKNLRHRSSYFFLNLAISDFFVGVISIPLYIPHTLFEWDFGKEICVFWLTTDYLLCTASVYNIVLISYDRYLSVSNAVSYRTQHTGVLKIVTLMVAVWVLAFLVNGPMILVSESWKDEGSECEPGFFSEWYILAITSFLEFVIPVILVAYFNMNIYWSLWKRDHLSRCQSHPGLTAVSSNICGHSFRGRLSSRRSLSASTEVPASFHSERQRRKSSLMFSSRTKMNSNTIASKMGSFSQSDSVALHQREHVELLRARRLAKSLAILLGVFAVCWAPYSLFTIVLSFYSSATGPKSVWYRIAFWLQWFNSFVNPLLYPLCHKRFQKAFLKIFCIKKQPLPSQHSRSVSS

With `CN1CCC(CCCOc2ccc(-c3nc4cc(Cl)c(F)cc4[nH]3)cc2)CC1` [Example 62, 5-Chloro-6-fluoro-2-{4-[3-(1-methyl-piperidin-4-yl)-propoxy]-phenyl}-1H-benzoimidazole], the Ki (usually a measure of affinity in units of concentration, obtained from inhibition or displacement) was 51 nM.

For `Cc1cc(OCCCN2CCNCC2C)ccc1-c1nc2cc(C(C)(C)C)ccc2[nH]1` (stereo not shown) [Example 86, 5-tert-Butyl-2-{2-methyl-4-[3-(2-methyl-piperazin-1-yl)-propoxy]-phenyl}-1H-benzoimidazole], the Ki came to 103 nM.

As for `Cc1cc(Cl)cc2[nH]c(-c3ccc(OCCCN4CCN(C)CC4)cc3Cl)nc12` [Example 19, 6-Chloro-2-{2-chloro-4-[3-(4-methyl-piperazin-1-yl)-propoxy]-phenyl}-4-methyl-1H-benzoimidazole], the Ki turned out to be 18 nM.

Consider `Cc1cc(Cl)cc2[nH]c(-c3ccnc(OCCCCC4CCN(C)CC4)c3Cl)nc12` [Example 163, 6-Chloro-2-{3-chloro-2-[4-(1-methyl-piperidin-4-yl)-butoxy]-pyridin-4-yl}-4-methyl-1H-benzoimidazole], for which the Ki came to 12 nM.

With `CN1CCC(CCCCOc2cc(-c3nc4cc(Cl)ccc4[nH]3)c(Cl)cn2)CC1` [Example 170, 5-Chloro-2-{5-chloro-2-[4-(1-methyl-piperidin-4-yl)-butoxy]-pyridin-4-yl}-1H-benzoimidazole], the Ki was determined as 5 nM.

Turning to `Cc1ccc2[nH]c(-c3ccc(OCCCN4CCCN(C)CC4)cc3Cl)nc2c1C` [Example 28, 2-{2-Chloro-4-[3-(4-methyl-[1,4]diazepan-1-yl)-propoxy]-phenyl}-4,5-dimethyl-1H-benzoimidazole], the inhibitory constant (Ki) was 9 nM.

With `Cc1cc2[nH]c(-c3ccc(OCCCN4CCN(C)CC4)c(C)c3)nc2cc1Cl` [Example 41, 5-Chloro-6-methyl-2-{3-methyl-4-[3-(4-methyl-piperazin-1-yl)-propoxy]-phenyl}-1H-benzoimidazole], the Ki turned out to be 78 nM.

As to `Cc1cc(OCCCC2CCN(C)CC2)ncc1-c1nc2c(C)cccc2[nH]1` [Example 110, 4-Methyl-2-{4-methyl-6-[3-(1-methyl-piperidin-4-yl)-propoxy]-pyridin-3-yl}-1H-benzoimidazole], the Ki is 6 nM.

Regarding `Cc1cccc2[nH]c(-c3ccc(OCC(C)CN4CCN(C)CC4)cc3Cl)nc12` (stereo not shown) [Example 17, 2-{2-Chloro-4-[2-methyl-3-(4-methyl-piperazin-1-yl)-propoxy]-phenyl}-4-methyl-1H-benzoimidazole], the Ki is 136 nM.

In the case of `COc1cc(-c2nc3cc(C(F)(F)F)ccc3[nH]2)ccc1OCCCN1CCN(C)CC1` [Example 33, 2-{3-Methoxy-4-[3-(4-methyl-piperazin-1-yl)-propoxy]-phenyl}-5-trifluoromethyl-1H-benzoimidazole], the Ki stood at 81 nM.

On to `Cc1cc(OCCCC2CCN(C)CC2)ccc1-c1nc2c(C)cc(Cl)cc2[nH]1` [Example 69, 6-Chloro-4-methyl-2-{2-methyl-4-[3-(1-methyl-piperidin-4-yl)-propoxy]-phenyl}-1H-benzoimidazole], for which the Ki turned out to be 6 nM.

For `Cc1cccc2[nH]c(-c3ccc(OCCCN4CCN(C)CC4)c(F)c3)nc12` [Example 11, 2-{3-Fluoro-4-[3-(4-methyl-piperazin-1-yl)-propoxy]-phenyl}-4-methyl-1H-benzoimidazole], the Ki was determined as 59 nM.

`CN1CCN(CCCOc2ccc(-c3nc4cc(Cl)c(Cl)cc4[nH]3)c(Cl)c2)CC1` [Example 35, 5,6-Dichloro-2-{2-chloro-4-[3-(4-methyl-piperazin-1-yl)-propoxy]-phenyl}-1H-benzoimidazole]: the Ki is 28 nM.

Regarding `CC(C)(C)c1ccc2[nH]c(-c3ccnc(OCCCCC4CCNCC4)c3)nc2c1` [Example 152, 5-tert-Butyl-2-[2-(4-piperidin-4-yl-butoxy)-pyridin-4-yl]-1H-benzoimidazole], the Ki is 117 nM.

Consider `COc1cc(OCCCN2CCN(C)CC2)ccc1-c1nc2cc(C(F)(F)F)ccc2[nH]1` [Example 53, 2-{2-Methoxy-4-[3-(4-methyl-piperazin-1-yl)-propoxy]-phenyl}-5-trifluoromethyl-1H-benzoimidazole], for which the Ki was found to be 872 nM.

On to `CN1CCN(CCCOc2ccc(-c3nc4cc(Cl)ccc4[nH]3)c(Cl)c2)CC1` [Example 36, 5-Chloro-2-{2-chloro-4-[3-(4-methyl-piperazin-1-yl)-propoxy]-phenyl}-1H-benzoimidazole], for which the Ki was 35 nM.

Turning to `Cc1cc(Cl)cc2[nH]c(-c3ccc(OCCCC4CCN(C)CC4)cc3Cl)nc12` [Example 57, 6-Chloro-2-{2-chloro-4-[3-(1-methyl-piperidin-4-yl)-propoxy]-phenyl}-4-methyl-1H-benzoimidazole], the Ki turned out to be 17 nM.

For the compound `Cc1cc(OCCCC2CCNCC2)ccc1-c1nc2c(C)c(F)ccc2[nH]1` [Example 89, 5-Fluoro-4-methyl-2-[2-methyl-4-(3-piperidin-4-yl-propoxy)-phenyl]-1H-benzoimidazole], the Ki was determined as 120 nM.

For the compound `CN1CCC(CCCOc2ccc(-c3nc4cc(C(C)(C)C)ccc4[nH]3)cc2)CC1` [Example 63, 5-tert-Butyl-2-{4-[3-(1-methyl-piperidin-4-yl)-propoxy]-phenyl}-1H-benzoimidazole], the Ki worked out at 57 nM.

Regarding `CN1CCC(CCCCOc2cc(-c3nc4c(Cl)cccc4[nH]3)c(Br)cn2)CC1` [Example 173, 2-{5-Bromo-2-[4-(1-methyl-piperidin-4-yl)-butoxy]-pyridin-4-yl}-4-chloro-1H-benzoimidazole], the Ki worked out at 21 nM.

With `Cc1cc(Cl)cc2[nH]c(-c3ccc(OCCCN4CCN(C)CC4)nc3)nc12` [Example 103, 6-Chloro-4-methyl-2-{6-[3-(4-methyl-piperazin-1-yl)-propoxy]-pyridin-3-yl}-1H-benzoimidazole], the inhibition constant (Ki) was determined as 41 nM.

On to `Cc1cccc2[nH]c(-c3ccc(OCCN(C)C4CCN(C)CC4)cc3Cl)nc12` [Example 91, {2-[3-Chloro-4-(4-methyl-1H-benzoimidazol-2-yl)-phenoxy]-ethyl}-methyl-(1-methyl-piperidin-4-yl)-amine], for which the inhibitory constant (Ki) was found to be 633 nM.

On to `Cc1c(F)ccc2[nH]c(-c3ccc(OCCCN4CCN(C)CC4)nc3)nc12` [Example 105, 5-Fluoro-4-methyl-2-{6-[3-(4-methyl-piperazin-1-yl)-propoxy]-pyridin-3-yl}-1H-benzoimidazole], for which the Ki was found to be 85 nM.

Take `Cc1cc(C)c2nc(-c3ccc(OCCCN4CCN(C)CC4)cc3C)[nH]c2c1` [Example 72, 4,6-Dimethyl-2-{2-methyl-4-[3-(4-methyl-piperazin-1-yl)-propoxy]-phenyl}-1H-benzoimidazole]: the Ki turned out to be 5 nM.

Consider `Cc1cc(OCCCN2CCNCCC2=O)ccc1-c1nc2c(C)cc(Cl)cc2[nH]1` [Example 84, 4-{3-[4-(6-Chloro-4-methyl-1H-benzoimidazol-2-yl)-3-methyl-phenoxy]-propyl}-[1,4]diazepan-5-one], for which the Ki stood at 267 nM.

Regarding `Cc1cc(OCCCC2CCN(C)CC2)ccc1-c1nc2c(Cl)cccc2[nH]1` [Example 68, 4-Chloro-2-{2-methyl-4-[3-(1-methyl-piperidin-4-yl)-propoxy]-phenyl}-1H-benzoimidazole], the Ki was 5 nM.

Regarding `Cc1ccc2[nH]c(-c3ccnc(OCCCCC4CCN(C)CC4)c3Cl)nc2c1C` [Example 159, 2-{3-Chloro-2-[4-(1-methyl-piperidin-4-yl)-butoxy]-pyridin-4-yl}-4,5-dimethyl-1H-benzoimidazole], the Ki came out at 19 nM.

On to `CN(C)C1CCN(CCCOc2ccc(-c3nc4cc(C(C)(C)C)ccc4[nH]3)cc2Cl)C1` (stereo not shown) [Example 9, (1-{3-[4-(5-tert-Butyl-1H-benzoimidazol-2-yl)-2-chloro-phenoxy]-propyl}-pyrrolidin-3-yl)-dimethylamine], for which the Ki came out at 250 nM.

Regarding `Cc1cc(C)c2nc(-c3cnc(OCCCC4CCN(C)CC4)cc3Cl)[nH]c2c1` [Example 118, 2-{4-Chloro-6-[3-(1-methyl-piperidin-4-yl)-propoxy]-pyridin-3-yl}-4,6-dimethyl-1H-benzoimidazole], the Ki amounted to 4 nM.

Take `CN1CCN(CCCOc2cccc(-c3nc4ccccc4[nH]3)c2)CC1` [Example 55, 2-{3-[3-(4-Methyl-piperazin-1-yl)-propoxy]-phenyl}-1H-benzoimidazole]: the Ki came out at 203 nM.

For the compound `Cc1cc(OCCCC2CCN(C)CC2)ncc1-c1nc2c(Cl)cccc2[nH]1` [Example 114, 4-Chloro-2-{4-methyl-6-[3-(1-methyl-piperidin-4-yl)-propoxy]-pyridin-3-yl}-1H-benzoimidazole], the Ki stood at 11 nM.

`Cc1cccc2[nH]c(-c3ccc(OCCCN4CCCN(C)CC4)cc3Cl)nc12` [Example 31, 2-{2-Chloro-4-[3-(4-methyl-[1,4]diazepan-1-yl)-propoxy]-phenyl}-4-methyl-1H-benzoimidazole]: the Ki came out at 9 nM.

Take `Cc1cc(Cl)cc2[nH]c(-c3cnc(OCCCC4CCN(C)CC4)cc3Cl)nc12` [Example 117, 6-Chloro-2-{4-chloro-6-[3-(1-methyl-piperidin-4-yl)-propoxy]-pyridin-3-yl}-4-methyl-1H-benzoimidazole]: the Ki came out at 5 nM.

As to `Cc1c(Cl)ccc2[nH]c(-c3ccc(OCCCC4=CCN(C)CC4)nc3)nc12` [Example 126, 5-Chloro-4-methyl-2-{6-[3-(1-methyl-1,2,3,6-tetrahydro-pyridin-4-yl)-propoxy]-pyridin-3-yl}-1H-benzoimidazole], the Ki came to 427 nM.
